Measured values reported in ChEMBL document CHEMBL4229431, “Discovery of novel selective GPR120 agonists with potent anti-diabetic activity by hybrid design” (Bioorg Med Chem Lett, 2018).
pEC50: −log10 of the molar value. Calls of active or inactive are those of the source. The calls are words filed in the database; no cut-off is given here.

Tests used:
[1] = target: T1, Free fatty acid receptor 4 (Homo sapiens, UniProt Q5NUL3); test: Agonist activity at human GPR120 expressed in CHO cells assessed as increase in intracellular calcium level by Fluo-4-AM dye based assay; format: functional, cell-based
T1 sequence (Q5NUL3 whole entry): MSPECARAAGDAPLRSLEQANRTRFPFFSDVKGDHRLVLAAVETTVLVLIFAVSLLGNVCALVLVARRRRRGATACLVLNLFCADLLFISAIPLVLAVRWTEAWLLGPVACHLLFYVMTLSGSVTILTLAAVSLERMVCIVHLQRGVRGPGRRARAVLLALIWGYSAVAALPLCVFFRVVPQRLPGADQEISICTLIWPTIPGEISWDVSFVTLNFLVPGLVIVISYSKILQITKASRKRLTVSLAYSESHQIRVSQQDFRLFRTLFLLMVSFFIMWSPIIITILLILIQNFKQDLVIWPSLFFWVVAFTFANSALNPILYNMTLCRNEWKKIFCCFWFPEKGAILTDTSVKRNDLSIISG

[2] = tested on: Mus musculus; test: Hypoglycemic activity in ICR mouse assessed as reduction in blood glucose level at 10 mg/kg, po pretreated for 60 mins followed by glucose challenge measured up to 120 mins by OGTT; format: functional, organism-based
[3] = target: Free fatty acid receptor 1 (Homo sapiens, UniProt O14842); test: Agonist activity at human GPR40 expressed in CHO cells assessed as increase in intracellular calcium level by Fluo-4-AM dye based assay; format: functional, cell-based
[4] = species: Homo sapiens; test: Selectivity ratio of EC50 for agonist activity at human GPR40 expressed in CHO cells to EC50 for agonist activity at human GPR120 expressed in CHO cells; format: cell-based
[5] = tested on: Mus musculus; test: Hypoglycemic activity in ICR mouse assessed as reduction in blood glucose level pretreated orally for 60 mins followed by glucose challenge measured up to 120 mins by OGTT; format: functional, organism-based
[6] = target: T2, Free fatty acid receptor 4 (Homo sapiens) (UniProt Q5NUL3); test: Agonist activity at human GPR120 expressed in CHO cells assessed as increase in intracellular calcium level at 1 uM by Fluo-4-AM dye based assay; format: functional, cell-based
T2 sequence (whole entry): T1 sequence (Q5NUL3 whole entry)

[7] = target: T1, Free fatty acid receptor 4; test: Agonist activity at human GPR120; format: functional

Chain of Free fatty acid receptor 1 (O14842 whole entry): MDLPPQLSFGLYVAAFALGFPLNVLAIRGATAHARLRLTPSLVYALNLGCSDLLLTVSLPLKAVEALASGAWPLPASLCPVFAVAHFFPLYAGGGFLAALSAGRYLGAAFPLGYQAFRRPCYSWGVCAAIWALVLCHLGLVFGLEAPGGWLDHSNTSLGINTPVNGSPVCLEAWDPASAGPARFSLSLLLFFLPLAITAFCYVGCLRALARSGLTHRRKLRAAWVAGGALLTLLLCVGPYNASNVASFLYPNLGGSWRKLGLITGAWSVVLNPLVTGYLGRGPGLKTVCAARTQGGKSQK

Compound	pEC50 [1]	pEC50 [3]	Activity [6]	further results
CO[C@H]1C[C@H](Oc2cc(F)c(F)c(-c3ccc4c(c3)CC[C@H](CCC(=O)O)O4)c2)C1	6.33	< 4.00		Activity [2]: Active
CO[C@H]1C[C@H](Oc2cc(F)c(F)c(-c3cc(F)c(OCCCCC(=O)O)c(F)c3)c2)C1	6.73	4.16		Ratio EC50 [4]: 370
CO[C@H]1C[C@H](Oc2ccc([N+](=O)[O-])c(-c3cc(F)c(OCCCC(=O)O)c(F)c3)c2)C1	5.83	4.53		Ratio EC50 [4]: 20
CO[C@H]1C[C@H](Oc2cc(F)c(F)c(-c3cc(F)c(OCCCC(=O)O)c(F)c3)c2)C1	7.03	< 4.00		Activity [5]: Dose-dependent effect
CO[C@H]1C[C@H](Oc2cc(F)c(F)c(-c3cc(F)c(SCCCC(=O)O)c(F)c3)c2)C1	6.46	< 4.00		
CO[C@H]1C[C@H](Oc2cc(F)c(F)c(-c3cc(F)c(OCCCCCCC(=O)O)c(F)c3)c2)C1	< 4.00	5.46		
CO[C@H]1C[C@H](Oc2cc(F)c(F)c(-c3cc(F)c(OCC(=O)O)c(F)c3)c2)C1			inactive	
CO[C@H]1C[C@H](Oc2cc(F)c(F)c(-c3cc(F)c(OCCC(C)(C)C(=O)O)c(F)c3)c2)C1	5.30	< 4.00		
CO[C@H]1C[C@H](Oc2cc(F)c(F)c(-c3cc(F)c(OCCCC(=O)NS(=O)(=O)c4ccccc4)c(F)c3)c2)C1			inactive	

Now from value to compound, other results behind:

pEC50 [1]	pEC50 [3]	Activity [6]	Compound	further results
		inactive	CO[C@H]1C[C@H](Oc2cc(F)c(F)c(-c3cc(F)c(OCCCC(=O)OCCNC(C)=O)c(F)c3)c2)C1	
7.16	4.61		COc1cc(F)c(F)c(-c2cc(F)c(OCCCC(=O)O)c(F)c2)c1	Ratio EC50 [4]: 354
4.62	5.46		CO[C@H]1C[C@H](Oc2cc(F)c(F)c(-c3cc(F)c(OCCCCCCCC(=O)O)c(F)c3)c2)C1	Ratio EC50 [4]: < 1
		inactive	CO[C@H]1C[C@H](Oc2cc(F)c(F)c(-c3cc(F)c(S(=O)(=O)CCCC(=O)O)c(F)c3)c2)C1	
5.56	< 4.00		O=C(O)CCCOc1c(F)cc(-c2cc(OC3CCOCC3)cc(F)c2F)cc1F	
6.06	< 4.00		CO[C@H]1C[C@H](Oc2cc(F)c(F)c(-c3cc(C)c(OCCCC(=O)O)c(C)c3)c2)C1	
		inactive	CO[C@H]1C[C@H](Oc2cc(F)c(F)c(-c3cc(F)c(OCCCC(=O)NS(C)(=O)=O)c(F)c3)c2)C1	
5.83	< 4.00		CC(C)Nc1ccccc1-c1cc(F)c(OCCCC(=O)O)c(F)c1	pEC50 [7]: 5.70 to 6.70
		inactive	Cc1c(COc2cc(F)c(F)c(-c3cc(F)c(OCCCC(=O)O)c(F)c3)c2)cccc1-c1ccccc1	
6.66	< 4.00		CO[C@H]1C[C@H](Oc2cc3c(c(-c4cc(F)c(OCCCC(=O)O)c(F)c4)c2)OCO3)C1	
6.20	4.96		CO[C@H]1C[C@H](Oc2cc(F)c(F)c(-c3cc(F)c(OCCCCCC(=O)O)c(F)c3)c2)C1	Ratio EC50 [4]: 17
		inactive	COc1cc(-c2cc(O[C@H]3C[C@H](OC)C3)cc(F)c2F)cc(OC)c1OCCCC(=O)O	
